Reference: US10562887B2, “Triazolones and tetrazolones as inhibitors of ROCK” (BRISTOL-MYERS SQUIBB COMPANY, priority 2016, dated 2020)

biological target: ROCK2 (Homo sapiens (Human), UniProt O75116); test: ROCK2 assay (peptide phosphorylation, LABCHIP 3000 Reader); assay type: biochemical; settings: 5 μM ATP, 1.5 μM peptide substrate
In short: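 Human ROCK2 reaction in 20 mM HEPES pH 7.5, 20 mM MgCl2, 0.015% Brij-35, 4 mM DTT, with 5 μM ATP and 1.5 μM FITC-labelled peptide, DMSO <2%. Stopped with EDTA; phosphorylated and unphosphorylated peptide separated by microfluidic mobility shift. IC50 from dose-response curve fit.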

Chain of ROCK2 (O75116 whole entry, species assumed): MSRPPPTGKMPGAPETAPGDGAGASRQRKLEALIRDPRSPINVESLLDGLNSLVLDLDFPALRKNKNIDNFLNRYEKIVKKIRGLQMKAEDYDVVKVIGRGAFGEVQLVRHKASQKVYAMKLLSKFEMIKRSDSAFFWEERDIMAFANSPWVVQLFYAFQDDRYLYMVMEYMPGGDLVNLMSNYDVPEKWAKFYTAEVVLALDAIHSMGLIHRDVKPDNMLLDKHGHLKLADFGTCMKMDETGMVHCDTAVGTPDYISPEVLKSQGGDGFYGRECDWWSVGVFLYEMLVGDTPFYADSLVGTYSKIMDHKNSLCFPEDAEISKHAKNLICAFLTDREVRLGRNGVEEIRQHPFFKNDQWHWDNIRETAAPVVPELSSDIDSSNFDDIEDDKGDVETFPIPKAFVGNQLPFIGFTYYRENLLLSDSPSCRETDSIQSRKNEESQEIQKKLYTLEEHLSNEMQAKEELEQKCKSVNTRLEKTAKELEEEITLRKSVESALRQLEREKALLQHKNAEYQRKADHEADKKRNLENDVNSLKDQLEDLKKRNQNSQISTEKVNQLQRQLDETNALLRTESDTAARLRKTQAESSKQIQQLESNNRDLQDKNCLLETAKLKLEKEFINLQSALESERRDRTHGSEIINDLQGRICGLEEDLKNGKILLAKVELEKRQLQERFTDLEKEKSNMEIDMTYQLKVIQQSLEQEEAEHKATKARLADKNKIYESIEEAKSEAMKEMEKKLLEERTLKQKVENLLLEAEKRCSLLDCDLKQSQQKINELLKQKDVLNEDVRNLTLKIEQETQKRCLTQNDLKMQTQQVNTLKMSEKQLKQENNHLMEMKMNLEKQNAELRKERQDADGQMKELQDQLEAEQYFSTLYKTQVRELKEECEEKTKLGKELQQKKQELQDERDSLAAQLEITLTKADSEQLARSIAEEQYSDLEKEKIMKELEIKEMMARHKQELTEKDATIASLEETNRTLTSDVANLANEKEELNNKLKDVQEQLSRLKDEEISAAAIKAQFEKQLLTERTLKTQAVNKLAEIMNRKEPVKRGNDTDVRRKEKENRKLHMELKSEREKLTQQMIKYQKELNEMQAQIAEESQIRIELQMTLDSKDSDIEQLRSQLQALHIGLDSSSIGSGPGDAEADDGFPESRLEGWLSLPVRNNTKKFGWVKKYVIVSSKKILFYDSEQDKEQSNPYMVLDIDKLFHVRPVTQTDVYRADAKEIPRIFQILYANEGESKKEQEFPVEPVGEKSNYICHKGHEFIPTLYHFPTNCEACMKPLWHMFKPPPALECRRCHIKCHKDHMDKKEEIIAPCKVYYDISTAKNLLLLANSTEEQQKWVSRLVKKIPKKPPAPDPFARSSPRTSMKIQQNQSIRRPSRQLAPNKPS

| Structure (SMILES) | IC50 [nM] |
| --- | --- |
| COc1cccc(Cn2c(C)nn(-c3ccc(-c4cn[nH]c4)cc3)c2=O)c1 [Example 80, 1-(4-(1H-pyrazol-4-yl)phenyl)-4-(3-methoxybenzyl)-3-methyl-1H-1,2,4-triazol-5(4H)-one] | < 5 |
| Cc1nn(-c2ccc(-c3cn[nH]c3)cc2)c(=O)n1Cc1cccc(F)c1 [Example 81, 1-(4-(1H-pyrazol-4-yl)phenyl)-4-(3-fluorobenzyl)-3-methyl-1H-1,2,4-triazol-5(4H)-one] | 5 to 50 |
| Cc1nn(-c2ccc(-c3cn[nH]c3)cc2)c(=O)n1Cc1cc(F)ccc1F [Example 82, 1-(4-(1H-pyrazol-4-yl)phenyl)-4-(2,5-difluorobenzyl)-3-methyl-1H-1,2,4-triazol-5(4H)-one] | 5 to 50 |
| COc1cc(F)cc(Cn2c(C)nn(-c3ccc(-c4cn[nH]c4)cc3)c2=O)c1 [Example 83, 1-(4-(1H-pyrazol-4-yl)phenyl)-4-(3-fluoro-5-methoxybenzyl)-3-methyl-1H-1,2,4-triazol-5(4H)-one] | < 5 |
| Cc1nn(-c2ccc(-c3cn[nH]c3)cc2)c(=O)n1C(C)c1ccccc1 (centres unmarked) [Example 84, 1-(4-(1H-pyrazol-4-yl)phenyl)-3-methyl-4-(1-phenylethyl)-1H-1,2,4-triazol-5(4H)-one] | 50 to 250 |
| Cc1nn(-c2ccc(-c3cn[nH]c3)cc2)c(=O)n1CCc1ccccc1 [Example 85, 1-(4-(1H-pyrazol-4-yl)phenyl)-3-methyl-4-phenethyl-1H-1,2,4-triazol-5(4H)-one] | 50 to 250 |
| Cc1nn(-c2ccc(-c3cn[nH]c3)cc2)c(=O)n1Cc1ccccc1Cl [Example 86, 1-(4-(1H-pyrazol-4-yl)phenyl)-4-(2-chlorobenzyl)-3-methyl-1H-1,2,4-triazol-5(4H)-one] | 5 to 50 |
| Cc1nn(-c2ccc(-c3cn[nH]c3)cc2)c(=O)n1Cc1ccccc1F [Example 87, 2-(4-(1H-pyrazol-4-yl)phenyl)-4-(2-fluorobenzyl)-5-methyl-2,4-dihydro-3H-1,2,4-triazol-3-one] | 5 to 50 |
| COc1cc(-n2nc(C)n(Cc3ccccc3)c2=O)ccc1-c1cn[nH]c1 [Example 88, 4-benzyl-1-(3-methoxy-4-(1H-pyrazol-4-yl)phenyl)-3-methyl-1H-1,2,4-triazol-5(4H)-one] | < 5 |
| COc1cccc(Cn2c(C)nn(-c3ccc(-c4cn[nH]c4)c(OC)c3)c2=O)c1 [Example 89, 1-(3-methoxy-4-(1H-pyrazol-4-yl)phenyl)-4-(3-methoxybenzyl)-3-methyl-1H-1,2,4-triazol-5(4H)-one] | < 5 |
| COc1cc(-n2nc(C)n(Cc3cccc(F)c3)c2=O)ccc1-c1cn[nH]c1 [Example 90, 4-(3-fluorobenzyl)-1-(3-methoxy-4-(1H-pyrazol-4-yl)phenyl)-3-methyl-1H-1,2,4-triazol-5(4H)-one] | < 5 |
| COc1cc(-n2nc(C)n(Cc3cc(F)ccc3F)c2=O)ccc1-c1cn[nH]c1 [Example 91, 4-(2,5-difluorobenzyl)-1-(3-methoxy-4-(1H-pyrazol-4-yl)phenyl)-3-methyl-1H-1,2,4-triazol-5(4H)-one] | 5 to 50 |
| COc1cc(F)cc(Cn2c(C)nn(-c3ccc(-c4cn[nH]c4)c(OC)c3)c2=O)c1 [Example 92, 4-(3-fluoro-5-methoxybenzyl)-1-(3-methoxy-4-(1H-pyrazol-4-yl)phenyl)-3-methyl-1H-1,2,4-triazol-5(4H)-one] | < 5 |
| COc1cc(-n2nc(C)n(C(C)c3ccccc3)c2=O)ccc1-c1cn[nH]c1 (centres unmarked) [Example 93, 1-(3-methoxy-4-(1H-pyrazol-4-yl)phenyl)-3-methyl-4-(1-phenylethyl)-1H-1,2,4-triazol-5(4H)-one] | 5 to 50 |
| COc1cc(-n2nc(C)n(CCc3ccccc3)c2=O)ccc1-c1cn[nH]c1 [Example 94, 1-(3-methoxy-4-(1H-pyrazol-4-yl)phenyl)-3-methyl-4-phenethyl-1H-1,2,4-triazol-5(4H)-one] | 5 to 50 |
| COc1cc(-n2nc(C)n(Cc3ccccc3F)c2=O)ccc1-c1cn[nH]c1 [Example 95, 4-(2-fluorobenzyl)-1-(3-methoxy-4-(1H-pyrazol-4-yl)phenyl)-3-methyl-1H-1,2,4-triazol-5(4H)-one] | 5 to 50 |
| Cc1nn(-c2ccc(-c3cn[nH]c3)cc2)c(=O)n1Cc1cc(F)cc(F)c1 [Example 96, 1-(4-(1H-pyrazol-4-yl)phenyl)-4-(3,5-difluorobenzyl)-3-methyl-1H-1,2,4-triazol-5(4H)-one] | 5 to 50 |
| COc1cc(-n2nc(C)n(Cc3cccc(C#N)c3)c2=O)ccc1-c1cn[nH]c1 [Example 97, 3-((1-(3-methoxy-4-(1H-pyrazol-4-yl)phenyl)-3-methyl-5-oxo-1H-1,2,4-triazol-4(5H)-yl)methyl)benzonitrile] | 50 to 250 |
| COc1cc(-n2nc(C)n(Cc3c(F)cccc3F)c2=O)ccc1-c1cn[nH]c1 [Example 98, 4-(2,6-difluorobenzyl)-1-(3-methoxy-4-(1H-pyrazol-4-yl)phenyl)-3-methyl-1H-1,2,4-triazol-5(4H)-one] | 5 to 50 |

| Structure (SMILES) | IC50 [nM] |
| --- | --- |
| COc1cc(-n2nc(C)n(Cc3cc(F)cc(F)c3)c2=O)ccc1-c1cn[nH]c1 [Example 99, 4-(3,5-difluorobenzyl)-1-(3-methoxy-4-(1H-pyrazol-4-yl)phenyl)-3-methyl-1H-1,2,4-triazol-5(4H)-one] | 5 to 50 |
| COc1cc(-n2nc(C)n(Cc3cccc(OC(F)F)c3)c2=O)ccc1-c1cn[nH]c1 [Example 100, 4-(3-(difluoromethoxy)benzyl)-1-(3-methoxy-4-(1H-pyrazol-4-yl)phenyl)-3-methyl-1H-1,2,4-triazol-5(4H)-one] | 5 to 50 |
| COc1cc(-n2nc(C)n(Cc3ccc(F)cc3)c2=O)ccc1-c1cn[nH]c1 [Example 101, 4-(4-fluorobenzyl)-1-(3-methoxy-4-(1H-pyrazol-4-yl)phenyl)-3-methyl-1H-1,2,4-triazol-5(4H)-one] | 5 to 50 |
| Cc1nn(-c2ccc(-c3cn[nH]c3)cc2)c(=O)n1Cc1cccc(OC(F)F)c1 [Example 102, 1-(4-(1H-pyrazol-4-yl)phenyl)-4-(3-(difluoromethoxy)benzyl)-3-methyl-1H-1,2,4-triazol-5(4H)-one] | 50 to 250 |
| Cc1nn(-c2ccc(-c3cn[nH]c3)cc2)c(=O)n1Cc1cccc(C#N)c1 [Example 103, 3-((1-(4-(1H-pyrazol-4-yl)phenyl)-3-methyl-5-oxo-1H-1,2,4-triazol-4(5H)-yl)methyl)benzonitrile] | 250 to 2000 |
| Cc1nn(-c2ccc(-c3cn[nH]c3)cc2)c(=O)n1Cc1c(F)cccc1F [Example 104, 1-(4-(1H-pyrazol-4-yl)phenyl)-4-(2,6-difluorobenzyl)-3-methyl-1H-1,2,4-triazol-5(4H)-one] | 50 to 250 |
| CCc1cc(-n2nc(C)n(Cc3cccc(OC)c3)c2=O)ccc1-c1cn[nH]c1 [Example 105, 1-(3-ethyl-4-(1H-pyrazol-4-yl)phenyl)-4-(3-methoxybenzyl)-3-methyl-1H-1,2,4-triazol-5(4H)-one] | 5 to 50 |
| CCc1cc(-n2nc(C)n(Cc3cccc(F)c3)c2=O)ccc1-c1cn[nH]c1 [Example 106, 1-(3-ethyl-4-(1H-pyrazol-4-yl)phenyl)-4-(3-fluorobenzyl)-3-methyl-1H-1,2,4-triazol-5(4H)-one] | 5 to 50 |
| CCc1cc(-n2nc(C)n(Cc3cc(F)ccc3F)c2=O)ccc1-c1cn[nH]c1 [Example 107, 4-(2,5-difluorobenzyl)-1-(3-ethyl-4-(1H-pyrazol-4-yl)phenyl)-3-methyl-1H-1,2,4-triazol-5(4H)-one] | 50 to 250 |
| CCc1cc(-n2nc(C)n(Cc3cc(F)cc(F)c3)c2=O)ccc1-c1cn[nH]c1 [Example 108, 4-(3,5-difluorobenzyl)-1-(3-ethyl-4-(1H-pyrazol-4-yl)phenyl)-3-methyl-1H-1,2,4-triazol-5(4H)-one] | 5 to 50 |
| CCc1cc(-n2nc(C)n(C(C)c3ccccc3)c2=O)ccc1-c1cn[nH]c1 (centres unmarked) [Example 109, 1-(3-ethyl-4-(1H-pyrazol-4-yl)phenyl)-3-methyl-4-(1-phenylethyl)-1H-1,2,4-triazol-5(4H)-one] | 250 to 2000 |
| CCc1cc(-n2nc(C)n(CCc3ccccc3)c2=O)ccc1-c1cn[nH]c1 [Example 110, 1-(3-ethyl-4-(1H-pyrazol-4-yl)phenyl)-3-methyl-4-phenethyl-1H-1,2,4-triazol-5(4H)-one] | 250 to 2000 |
| CCc1cc(-n2nc(C)n(Cc3cccc(C#N)c3)c2=O)ccc1-c1cn[nH]c1 [Example 111, 3-((1-(3-ethyl-4-(1H-pyrazol-4-yl)phenyl)-3-methyl-5-oxo-1H-1,2,4-triazol-4(5H)-yl)methyl)benzonitrile] | 250 to 2000 |
| CCc1cc(-n2nc(C)n(Cc3cccc(OC(F)F)c3)c2=O)ccc1-c1cn[nH]c1 [Example 112, 4-(3-(difluoromethoxy)benzyl)-1-(3-ethyl-4-(1H-pyrazol-4-yl)phenyl)-3-methyl-1H-1,2,4-triazol-5(4H)-one] | 50 to 250 |
| CCc1cc(-n2nc(C)n(Cc3ccccc3F)c2=O)ccc1-c1cn[nH]c1 [Example 113, 1-(3-ethyl-4-(1H-pyrazol-4-yl)phenyl)-4-(2-fluorobenzyl)-3-methyl-1H-1,2,4-triazol-5(4H)-one] | 50 to 250 |
| CCc1cc(-n2nc(C)n(Cc3ccc(F)cc3)c2=O)ccc1-c1cn[nH]c1 [Example 114, 1-(3-ethyl-4-(1H-pyrazol-4-yl)phenyl)-4-(4-fluorobenzyl)-3-methyl-1H-1,2,4-triazol-5(4H)-one] | 250 to 2000 |
| CCc1cc(-n2nc(C)n(Cc3cc(F)cc(OC)c3)c2=O)ccc1-c1cn[nH]c1 [Example 115, 1-(3-ethyl-4-(1H-pyrazol-4-yl)phenyl)-4-(3-fluoro-5-methoxybenzyl)-3-methyl-1H-1,2,4-triazol-5(4H)-one] | 5 to 50 |
| CCc1cc(-n2nc(C)n(Cc3c(F)cccc3F)c2=O)ccc1-c1cn[nH]c1 [Example 116, 4-(2,6-difluorobenzyl)-1-(3-ethyl-4-(1H-pyrazol-4-yl)phenyl)-3-methyl-1H-1,2,4-triazol-5(4H)-one] | 250 to 2000 |
| CCc1cc(-n2nc(C)n(Cc3ccccc3)c2=O)ccc1-c1cn[nH]c1 [Example 117, 4-benzyl-1-(3-ethyl-4-(1H-pyrazol-4-yl)phenyl)-3-methyl-1H-1,2,4-triazol-5(4H)-one] | 5 to 50 |
